This is an account of results in patent publication US8815857B2 (Boehringer Ingelheim International GmbH, priority 2011, dated 2014).

One data set can be described thus: physchem. Particulars: kinetic from dmso stock.
In data set [1] the target is T1, Recombinant human soluble guanylate cyclase (sGC), alpha 1 / beta 1 subunits, heme-free (Homo sapiens, UniProt Q02108+Q02153).
T1 construct: histidine tag (C); made in house; host or cells: Sf9 insect cells (baculovirus coinfection)
T1 sequence (Q02108 1-690 partner): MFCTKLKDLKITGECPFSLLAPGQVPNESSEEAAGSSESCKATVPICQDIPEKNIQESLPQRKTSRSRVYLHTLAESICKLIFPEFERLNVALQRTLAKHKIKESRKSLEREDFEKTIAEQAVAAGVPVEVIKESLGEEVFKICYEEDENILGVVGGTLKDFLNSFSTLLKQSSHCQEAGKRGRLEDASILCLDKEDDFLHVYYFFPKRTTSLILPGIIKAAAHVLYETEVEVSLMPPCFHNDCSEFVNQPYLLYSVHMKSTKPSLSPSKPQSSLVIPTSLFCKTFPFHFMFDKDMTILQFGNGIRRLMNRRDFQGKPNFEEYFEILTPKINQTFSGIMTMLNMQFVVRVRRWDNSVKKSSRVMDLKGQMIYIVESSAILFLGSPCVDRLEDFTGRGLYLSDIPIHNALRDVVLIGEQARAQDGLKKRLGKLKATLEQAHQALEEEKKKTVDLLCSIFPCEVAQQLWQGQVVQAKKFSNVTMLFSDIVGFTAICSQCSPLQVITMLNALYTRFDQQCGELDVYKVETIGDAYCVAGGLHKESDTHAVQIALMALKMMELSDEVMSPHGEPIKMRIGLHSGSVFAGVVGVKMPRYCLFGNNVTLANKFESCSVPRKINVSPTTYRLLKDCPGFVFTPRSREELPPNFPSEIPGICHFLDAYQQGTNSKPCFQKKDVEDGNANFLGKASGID
T1 sequence (Q02153 1-619): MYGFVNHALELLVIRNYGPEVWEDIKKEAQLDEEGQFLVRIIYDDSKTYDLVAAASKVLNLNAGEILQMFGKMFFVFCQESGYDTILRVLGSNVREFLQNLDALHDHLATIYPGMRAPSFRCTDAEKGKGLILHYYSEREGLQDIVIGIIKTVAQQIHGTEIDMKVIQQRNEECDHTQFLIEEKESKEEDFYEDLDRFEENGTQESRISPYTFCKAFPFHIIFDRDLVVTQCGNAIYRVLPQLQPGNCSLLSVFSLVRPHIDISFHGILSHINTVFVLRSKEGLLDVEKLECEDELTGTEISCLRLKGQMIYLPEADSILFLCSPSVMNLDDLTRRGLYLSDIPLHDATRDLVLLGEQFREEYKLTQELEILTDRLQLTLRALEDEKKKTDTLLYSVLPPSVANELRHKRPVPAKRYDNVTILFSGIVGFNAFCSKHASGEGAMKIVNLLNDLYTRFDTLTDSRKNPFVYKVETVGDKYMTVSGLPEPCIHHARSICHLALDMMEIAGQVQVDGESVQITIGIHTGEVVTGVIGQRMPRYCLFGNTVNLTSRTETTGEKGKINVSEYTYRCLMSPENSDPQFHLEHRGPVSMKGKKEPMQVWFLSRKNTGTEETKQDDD
Put plainly: Molecular assay: cGMP formation by heme-free recombinant sGC (CisBio cGMP detection kit). Format: biochemical. The note with it: 300 pM heme-free sGC, 37° C., 60 min, cGMP readout; read-out: EC50 nM, Activity of Compounds in Molecular Assay. An outline of the steps: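 Heme-free His-tagged sGC (Sf9-expressed, Tween 20-treated lysate) at 300 pM incubated with compounds (1% DMSO) for 60 min at 37° C in MOPS pH 6.8 with 50 nM GTP, IBMX, TCEP. cGMP quantified by HTRF against calibration curve; EC50 from combined undiluted/diluted values.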

Data set [2] addresses T2, human soluble guanylate cyclase alpha 1 and beta 1 subunits (sGC) stably expressed in Chinese hamster ovary cells (Homo sapiens, UniProt Q02108+Q02153).
T2 construct: expressed in transfected cells; host or cells: Chinese hamster ovary cells, stably transfected
T2 sequence (Q02108 1-690 partner): T1 sequence (Q02108 1-690 partner)
T2 sequence (Q02153 1-619): T1 sequence (Q02153 1-619)
In words: sGC cellular activator assay: cGMP in CHO cells expressing human sGC, preincubated with ODQ. Format: cell-based. The note with it: 40 microM ODQ preincubation, 30 min at room temperature, presence or absence of 50% human serum not given, read-out: EC50 nM, Activity of Compounds in Cellular Assay. An outline of the steps: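 EC50 values derive from HTRF cGMP measurement after test compounds act for thirty minutes at room temperature, with or without 50% human serum. Before dosing, the sGC-transfected CHO cells spend one hour with the inhibitor ODQ (40 microM) in IBMX- and 0.1% BSA-containing buffer.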

Data set [3] can be described thus: Assessment of solubility: HT solubility in pION buffer, UV spectrophotometry. The note with it: pION system solution buffer, kinetic from dmso stock, 16-19 h incubation, 1.0% DMSO.
Where [4] appears, read: pH 4.5, pH 4.5, aqueous buffer, Solubility (pH 4.5), pH 4.5 buffer.
Setting [5] is: pH 7.4, pH 7.4, aqueous buffer, Solubility (pH 7.4), pH 7.4 buffer.

Structures are written as SMILES. In brackets after ≈: the same amount, converted by molar mass. Where only a bound is given, the exact number is not on record here.

Usually solubility stands for the dissolved amount per volume that the medium holds. High values mean a readily soluble substance, low ones a poorly soluble substance. One may read the EC50 as the midpoint of the concentration-response curve. For the compound `Cc1ccc(OCc2ccc(CN3CCN(C(=O)C4CC4)CC3)cc2C)c(-c2csc(N3CCC(C(=O)O)CC3)n2)c1` [Compound 198], the solubility in “physchem” (pH 4.5, aqueous buffer, Solubility (pH 4.5)) was 37 µg/mL (≈ 62.8 µM); in the data set “physchem” (pH 7.4, aqueous buffer, Solubility (pH 7.4)), > 58 µg/mL. In addition, the EC50 in data set [1] stood at 20 nM.

In the case of `Cc1ccc(OCc2ccc(CN3CCC(F)CC3)cc2C)c(-c2csc(N3CCC(C(=O)O)CC3)n2)c1` [Compound 353], the concentration giving a half-maximal response (EC50) in data set [2] came to 140 nM; in data set [1] it was 470 nM. In addition, the solubility is > 53 µg/mL in data set [3] (setting [4]) and 38 µg/mL (≈ 70.7 µM) in data set [3] (setting [5]).

`Cc1ccc(OCc2ccc(CN3CCS(=O)(=O)CC3)cc2C)c(-c2csc(N3CCC(C(=O)O)C(C)C3)n2)c1` (stereo not shown) [Compound 204]: the EC50 was found to be 17 nM in data set [2] and 28 nM in data set [1]. Further, the solubility in data set [3] (setting [4]) came out at 0.35 µg/mL (≈ 0.6 µM); in data set [3] (setting [5]), 54 µg/mL (≈ 92.5 µM).

Consider `Cc1cc(CN2CCS(=O)(=O)CC2)ccc1COc1c(C)cccc1-c1csc(N2C[C@H]3CC[C@@H](C2)[C@H]3C(=O)O)n1` [Compound 203], for which the EC50 in data set [2] worked out at 68 nM; in data set [1] it was 23 nM. The solubility was 3 µg/mL (≈ 5.04 µM) in data set [3] (setting [4]) and > 59 µg/mL in data set [3] (setting [5]).

As to `Cc1cc(CN2CCS(=O)(=O)CC2)ccc1COc1ccc(Cl)cc1-c1csc(N2C3CCC2CC(C(=O)O)C3)n1` (stereo not shown) [Compound 207], the EC50 in data set [2] is 93 nM; in data set [1], 170 nM. The solubility was 0.95 µg/mL (≈ 1.54 µM) in data set [3] (setting [4]) and 30 µg/mL (≈ 48.7 µM) in data set [3] (setting [5]).

For `Cc1ccc(OCc2ccc(CN3CCN(C(=O)C4CC4)CC3)cc2C#N)c(-c2csc(N3CCC(C(=O)O)CC3)n2)c1` [Compound 352], the 50% effective concentration (EC50) in data set [2] amounted to 76 nM; in data set [1], 14 nM. The values for the solubility in data set [3] (setting [4]) and in data set [3] (setting [5]) were 22 µg/mL (≈ 36.7 µM) and > 59 µg/mL, respectively.

Regarding `Cc1ccc(OCc2ccc(CN3CCS(=O)(=O)CC3)cc2C)c(-c2csc(N3CCC(CC(=O)O)CC3)n2)c1` [Compound 219], the EC50 in data set [2] was 300 nM; in data set [1] it was 1000 nM. The solubility in data set [3] (setting [4]) came out at 2.4 µg/mL (≈ 4.11 µM); in data set [3] (setting [5]), 41 µg/mL (≈ 70.2 µM).

On to `Cc1cc(CN2CCS(=O)(=O)CC2)ccc1COc1ccccc1-c1csc(N2CCC(C(=O)O)CC2)n1` [Compound 272], for which the EC50 in data set [2] was found to be 110 nM; in data set [1] it was 120 nM. In addition, the solubility in data set [3] (setting [4]) is 14 µg/mL (≈ 25.2 µM); in data set [3] (setting [5]), > 160 µg/mL.

With `Cc1ccc(OCc2ccc(CN3CCS(=O)(=O)CC3)cc2C)c(-c2csc(N3CCCC(C(=O)O)CC3)n2)c1` (stereo not shown) [Compound 234], the EC50 was 7.9 nM in data set [2] and 6 nM in data set [1]. Further, the results for the solubility in data set [3] (setting [4]) and in data set [3] (setting [5]) were 3.3 µg/mL (≈ 5.65 µM) and > 58 µg/mL, respectively.

Take `Cc1ccc(OCc2ccc(CN3CCS(=O)(=O)CC3)cc2C)c(-c2csc(N3C[C@H]4C[C@@H](C3)[C@H]4C(=O)O)n2)c1` [Compound 235]: the EC50 in data set [2] is 57 nM; in data set [1], 47 nM. Besides, the solubility in data set [3] (setting [4]) is 8.1 µg/mL (≈ 13.9 µM); in data set [3] (setting [5]), > 58 µg/mL.

Take `Cc1ccc(OCc2ccc(CN3CCS(=O)(=O)CC3)cc2C)c(-c2csc(N3CCC4(C(=O)O)CC4C3)n2)c1` (stereo not shown) [Compound 217]: the concentration for a half-maximal effect (EC50) worked out at 8.7 nM in data set [2] and 49 nM in data set [1]. Besides, the solubility in data set [3] (setting [4]) was found to be 0.95 µg/mL (≈ 1.63 µM); in data set [3] (setting [5]), 34 µg/mL (≈ 58.4 µM).
